Measurements from patent publication US11939314B2, “Quinolin-2-one derivatives” (MERCK PATENT GMBH, priority 2016, dated 2024).

Experiments:
[1] = target: T1, c-Kit(V654A) (Homo sapiens, UniProt P10721, V654A); assay: c-Kit(V654A) assay; format: biochemical; details: recombinant human c-Kit aa 544-end, 200 μM ATP, 1.4E-06 means 1.4×10^−6, read-out: Inhibition (IC50) of c-KIT (V654A)
T1 construct: amino acids 544-end containing the V654A mutation; GST (N)
Summary of the method: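 Radiometric filter-binding read-out: substrate 33P incorporation counted by scintillation after P30 filtermat washes in 75 mM phosphoric acid and methanol. Enzyme: N-GST recombinant human c-Kit aa 544-end carrying V654A.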

[2] = target: T2, PDGFRalpha(V561D) (Homo sapiens, UniProt P16234, V561D); assay: PDGFRalpha(V561D) assay; format: biochemical; details: recombinant human PDGFRalpha aa 550-end, 200 μM ATP, 1.4E-06 means 1.4×10^−6, read-out: Inhibition (IC50) of PDGFRα (V561D)
T2 construct: recombinant human PDGFRalpha, amino acids 550end containing the V561 D mutation; 6His (N)
T2 sequence (P16234 550-1089 V561D): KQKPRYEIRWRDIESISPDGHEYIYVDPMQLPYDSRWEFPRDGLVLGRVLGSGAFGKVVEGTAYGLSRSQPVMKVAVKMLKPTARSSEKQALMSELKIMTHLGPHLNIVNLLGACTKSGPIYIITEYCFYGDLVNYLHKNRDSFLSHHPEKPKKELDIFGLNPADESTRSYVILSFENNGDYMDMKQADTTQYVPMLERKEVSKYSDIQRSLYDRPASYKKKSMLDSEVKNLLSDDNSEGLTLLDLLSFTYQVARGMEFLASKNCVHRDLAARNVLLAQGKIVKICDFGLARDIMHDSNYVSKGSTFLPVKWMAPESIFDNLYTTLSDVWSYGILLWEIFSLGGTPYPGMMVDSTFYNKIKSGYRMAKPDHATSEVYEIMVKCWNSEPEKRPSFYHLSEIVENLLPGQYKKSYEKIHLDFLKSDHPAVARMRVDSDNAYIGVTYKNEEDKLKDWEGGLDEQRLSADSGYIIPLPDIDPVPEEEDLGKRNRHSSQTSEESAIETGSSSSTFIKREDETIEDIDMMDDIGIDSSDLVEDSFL
Summary of the method: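 Radiometric filter-binding assay: substrate phosphorylation by recombinant N-His-tagged human PDGFRα 550-end V561D was quenched with 3% phosphoric acid after 40 min at room temperature, then counted.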

T1 sequence (P10721 544-976 V654A): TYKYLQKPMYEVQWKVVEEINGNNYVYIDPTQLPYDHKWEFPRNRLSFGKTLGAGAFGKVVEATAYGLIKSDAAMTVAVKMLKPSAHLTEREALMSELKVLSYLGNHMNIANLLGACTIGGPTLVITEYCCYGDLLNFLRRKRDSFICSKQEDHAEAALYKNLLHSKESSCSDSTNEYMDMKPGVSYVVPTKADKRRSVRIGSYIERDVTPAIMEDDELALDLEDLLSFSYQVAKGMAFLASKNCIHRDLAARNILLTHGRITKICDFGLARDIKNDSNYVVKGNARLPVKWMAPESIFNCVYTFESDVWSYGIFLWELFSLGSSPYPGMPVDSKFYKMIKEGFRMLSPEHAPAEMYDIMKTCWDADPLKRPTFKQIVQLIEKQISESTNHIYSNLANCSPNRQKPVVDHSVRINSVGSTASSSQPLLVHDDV

Structure (SMILES) | IC50 [1] [nM] | IC50 [2] [nM]
O=C(c1ccc(-n2cc(-c3cc4cc(F)c(F)cc4[nH]c3=O)nn2)cc1)N1CCC(OCCN2CCCC2)C1 (centres unmarked) [A225, 6,7-difluoro-3-(1-{4-[3-(2-pyrrolidin-1-yl-ethoxy)-pyrrolidine-1-carbonyl]-phenyl}-1H-[1,2,3]triazol-4-yl)-1H-quinolin-2-one] | 190 | 580
NC(=O)[C@@H]1CCN(C(=O)c2ccc(-n3cc(-c4cc5cc(F)ccc5[nH]c4=O)nn3)cc2)C1 [A226, (R)-1-{4-[4-(6-fluoro-2-oxo-1,2-dihydro-quinolin-3-yl)-[1,2,3]triazol-1-yl]-benzoyl}-pyrrolidine-3-carboxylic acid amide] | 55 | 89
O=C(c1ccc(-n2cc(-c3cc4cc(F)ccc4[nH]c3=O)nn2)cc1)N1C[C@H](O)C[C@H]1CO [A227, 6-fluoro-3-{1-[4-((2S,4R)-4-hydroxy-2-hydroxymethyl-pyrrolidine-1-carbonyl)-phenyl]-1H-[1,2,3]triazol-4-yl}-1H-quinolin-2-one] | 92 | 140
O=C(c1ccc(-n2cc(-c3cc4cc(F)ccc4[nH]c3=O)nn2)cc1)N1CCCC2(COC2)C1 [A228, 6-fluoro-3-{1-[4-(2-oxa-6-aza-spiro[3.5]nonane-6-carbonyl)-phenyl]-1H-[1,2,3]triazol-4-yl}-1H-quinolin-2-one] | 74 | 300
O=C(c1ccc(-n2cc(-c3cc4cc(F)ccc4[nH]c3=O)nn2)cc1)N1CCC2(CC1)COC2 [A229, 6-fluoro-3-{1-[4-(2-oxa-7-aza-spiro[3.5]nonane-7-carbonyl)-phenyl]-1H-[1,2,3]triazol-4-yl}-1H-quinolin-2-one] | 41 | 150
O=C(c1ccc(-n2cc(-c3cc4cc(F)ccc4[nH]c3=O)nn2)cc1)N1CCN(C2COC2)CC1 [A230, 6-fluoro-3-{1-[4-(4-oxetan-3-yl-piperazine-1-carbonyl)-phenyl]-1H-[1,2,3]triazol-4-yl}-1H-quinolin-2-one] | 49 | 95
O=C(c1ccc(-n2cc(-c3cc4cc(F)ccc4[nH]c3=O)nn2)cc1)N1CCOC2(COC2)C1 [A231, 3-{1-[4-(2,5-dioxa-8-aza-spiro[3.5]nonane-8-carbonyl)-phenyl]-1H-[1,2,3]triazol-4-yl}-6-fluoro-1H-quinolin-2-one] | 90 | 340
O=C(NC1COC1)c1ccc(-n2cc(-c3cc4cc(F)ccc4[nH]c3=O)nn2)cc1 [A232, 4-[4-(6-fluoro-2-oxo-1,2-dihydro-quinolin-3-yl)-[1,2,3]triazol-1-yl]-N-oxetan-3-yl-benzamide] | 160 | 980
COCCOC[C@H]1CCN(C(=O)c2ccc(-n3cc(-c4cc5cc(F)c(F)cc5[nH]c4=O)nn3)cc2)C1 [A233, 6,7-difluoro-3-(1-{4-[(S)-3-(2-methoxy-ethoxymethyl)-pyrrolidine-1-carbonyl]-phenyl}-1H-[1,2,3]triazol-4-yl)-1H-quinolin-2-one] | 96 | 600
O=C(c1ccc(-n2cc(-c3cc4cc(F)ccc4[nH]c3=O)nn2)cc1)N1CCCC12COC2 [A234, 6-fluoro-3-{1-[4-(2-oxa-5-aza-spiro[3.4]octane-5-carbonyl)-phenyl]-1H-[1,2,3]triazol-4-yl}-1H-quinolin-2-one] | 50 | 740
O=C(c1ccc(-n2cc(-c3cc4cc(F)ccc4[nH]c3=O)nn2)cc1)N1CC2(COC2)C1 [A235, 6-fluoro-3-{1-[4-(2-oxa-6-aza-spiro[3.3]heptane-6-carbonyl)-phenyl]-1H-[1,2,3]triazol-4-yl}-1H-quinolin-2-one] | 42 | 140
COCCOC[C@H]1CCN(C(=O)c2ccc(-n3cc(-c4cc5cc(F)ccc5[nH]c4=O)nn3)cc2)C1 [A236, 6-fluoro-3-(1-{4-[(S)-3-(2-methoxy-ethoxymethyl)-pyrrolidine-1-carbonyl]-phenyl}-1H-[1,2,3]triazol-4-yl)-1H-quinolin-2-one] | 53 | 560
CO[C@H]1CN(C(=O)c2ccc(-n3cc(-c4cc5cc(F)ccc5[nH]c4=O)nn3)cc2)C[C@H]1OC [A237, 3-{1-[4-((3R,4S)-3,4-dimethoxy-pyrrolidine-1-carbonyl)-phenyl]-1H-[1,2,3]triazol-4-yl}-6-fluoro-1H-quinolin-2-one] | 81 | 490
COCCN(CCOC)C(=O)c1ccc(-n2cc(-c3cc4cc(F)ccc4[nH]c3=O)nn2)cc1 [A238, 4-[4-(6-fluoro-2-oxo-1,2-dihydro-quinolin-3-yl)-[1,2,3]triazol-1-yl]-N,N-bis-(2-methoxy-ethyl)-benzamide] | 79 | 620
CCN(CC)CC1CCN(C(=O)c2ccc(-n3cc(-c4cc5cc(F)c(F)cc5[nH]c4=O)nn3)cc2)C1 (centres unmarked) [A239, 3-{1-[4-(3-diethylaminomethyl-pyrrolidine-1-carbonyl)-phenyl]-1H-[1,2,3]triazol-4-yl}-6,7-difluoro-1H-quinolin-2-one] | 330 | 1200
CC(=O)N1C[C@@H]2[C@H](C1)[C@H]2NC(=O)c1ccc(-n2cc(-c3cc4cc(F)ccc4[nH]c3=O)nn2)cc1 [A240, N-(3-acetyl-3-aza-bicyclo[3.1.0]hex-6-yl)-4-[4-(6-fluoro-2-oxo-1,2-dihydro-quinolin-3-yl)-[1,2,3]triazol-1-yl]-benzamide] | 130 | 250
CO[C@@H]1C[C@@H](CO)N(C(=O)c2ccc(-n3cc(-c4cc5cc(F)ccc5[nH]c4=O)nn3)cc2)C1 [A241, 6-fluoro-3-{1-[4-((2S,4R)-2-hydroxymethyl-4-methoxy-pyrrolidine-1-carbonyl)-phenyl]-1H-[1,2,3]triazol-4-yl}-1H-quinolin-2-one] | 100 | 290
NC(=O)[C@@H]1CCCN1C(=O)c1ccc(-n2cc(-c3cc4cc(F)ccc4[nH]c3=O)nn2)cc1 [A242, (S)-1-{4-[4-(6-fluoro-2-oxo-1,2-dihydro-quinolin-3-yl)-[1,2,3]triazol-1-yl]-benzoyl}-pyrrolidine-2-carboxylic acid amide] | 11 | 17
NC(=O)[C@H]1CCN(C(=O)c2ccc(-n3cc(-c4cc5cc(F)ccc5[nH]c4=O)nn3)cc2)C1 [A243, (S)-1-{4-[4-(6-fluoro-2-oxo-1,2-dihydro-quinolin-3-yl)-[1,2,3]triazol-1-yl]-benzoyl}-pyrrolidine-3-carboxylic acid amide] | 30 | 14
CO[C@@H]1C[C@H](CO)N(C(=O)c2ccc(-n3cc(-c4cc5cc(F)ccc5[nH]c4=O)nn3)cc2)C1 [A244, 6-fluoro-3-{1-[4-((2R,4R)-2-hydroxymethyl-4-methoxy-pyrrolidine-1-carbonyl)-phenyl]-1H-[1,2,3]triazol-4-yl}-1H-quinolin-2-one] | 36 | 13
O=C(c1ccc(-n2cc(-c3cc4cc(F)ccc4[nH]c3=O)nn2)cc1)N1CCCCC12COC2 [A245, 6-fluoro-3-{1-[4-(2-oxa-5-aza-spiro[3.5]nonane-5-carbonyl)-phenyl]-1H-[1,2,3]triazol-4-yl}-1H-quinolin-2-one] | 65 | 470
O=C(c1ccc(-n2cc(-c3cc4cc(Cl)ccc4[nH]c3=O)nn2)cc1)N1CCC[C@H]1CO [A246, 6-chloro-3-{1-[4-((S)-2-hydroxymethyl-pyrrolidine-1-carbonyl)-phenyl]-1H-[1,2,3]triazol-4-yl}-1H-quinolin-2-one] | 23 | 7.4
CO[C@@H]1C[C@H](CO)N(C(=O)c2ccc(-n3cc(-c4cc5cc(Cl)ccc5[nH]c4=O)nn3)cc2)C1 [A247, 6-chloro-3-{1-[4-((2R,4R)-2-hydroxymethyl-4-methoxy-pyrrolidine-1-carbonyl)-phenyl]-1H-[1,2,3]triazol-4-yl}-1H-quinolin-2-one] | 23 | 45
CO[C@@H]1C[C@@H](CO)N(C(=O)c2ccc(-n3cc(-c4cc5cc(Cl)ccc5[nH]c4=O)nn3)cc2)C1 [A248, 6-chloro-3-{1-[4-((2S,4R)-2-hydroxymethyl-4-methoxy-pyrrolidine-1-carbonyl)-phenyl]-1H-[1,2,3]triazol-4-yl}-1H-quinolin-2-one] | 35 | 45
O=C(c1ccc(-n2cc(-c3cc4cc(Cl)ccc4[nH]c3=O)nn2)cc1)N1CCC(N2CCC(O)CC2)C1 (centres unmarked) [A249, 6-chloro-3-(1-{4-[3-(4-hydroxy-piperidin-1-yl)-pyrrolidine-1-carbonyl]-phenyl}-1H-[1,2,3]triazol-4-yl)-1H-quinolin-2-one] | 35 | 260
O=C(c1ccc(-n2cc(-c3cc4cc(Cl)ccc4[nH]c3=O)nn2)cc1)N1CCN(C2COC2)CC1 [A250, 6-chloro-3-{1-[4-(4-oxetan-3-yl-piperazine-1-carbonyl)-phenyl]-1H-[1,2,3]triazol-4-yl}-1H-quinolin-2-one] | 40 | 76
COCCO[C@H]1CCN(C(=O)c2ccc(-n3cc(-c4cc5cc(F)ccc5[nH]c4=O)nn3)cc2)C1 [A251, 6-fluoro-3-(1-{4-[(S)-3-(2-methoxy-ethoxy)-pyrrolidine-1-carbonyl]-phenyl}-1H-[1,2,3]triazol-4-yl)-1H-quinolin-2-one] | 160 | 400
COCCO[C@@H]1CCN(C(=O)c2ccc(-n3cc(-c4cc5cc(F)ccc5[nH]c4=O)nn3)cc2)C1 [A252, 6-fluoro-3-(1-{4-[(R)-3-(2-methoxy-ethoxy)-pyrrolidine-1-carbonyl]-phenyl}-1H-[1,2,3]triazol-4-yl)-1H-quinolin-2-one] | 98 | 93
